In patent US8148391B2 (Cephalon, Inc., priority 2006, dated 2012):
Read-outs that look alike come from different tables or passages of the source.

Columns and labels:
[1] = target: T1, c-Met (cytoplasmic domain) (Homo sapiens, UniProt P08581); test: c-Met Kinase Assay (same methods as for ALK, with modifications); format: biochemical
T1 construct: 10 ng/mL c-Met (cytoplasmic domain, Invitrogen Corporation #PV3143); purchased Invitrogen Corporation PV3143
Outline: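 Steps: coat wells with PLC-γ (10 μg/mL, Tris-buffered saline); add 10 ng/mL c-Met cytoplasmic domain to initiate; incubate 15 min, 37° C; detect phosphoproduct via Eu-N1 PT66 antibody.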

[2] = target: T2, baculovirus-expressed ALK (Homo sapiens, UniProt Q9UM73); test: ALK Kinase Assay (ELISA-type, time-resolved fluorescence); format: biochemical
T2 construct: host or cells: baculovirus expression system
Outline: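 Wells were coated with phospholipase C-γ at 10 μg/mL in Tris-buffered saline. Adding 30 ng/ml enzyme started the reaction, which ran at 37° C for 15 minutes before Eu-N1 PT66 antibody detection. Percent inhibition versus log10 concentration gave IC50 by variable-slope fit.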

[3] = c-Met kinase inhibition, 1 μM ATP (Km level), read-out: cMet Activity
[4] = ALK kinase inhibition, 1 μM ATP (Km level), read-out: ALK Activity
[5] = c-Met kinase inhibition, 1 μM ATP, read-out: cMet Activity
[6] = ALK kinase inhibition, 1 μM ATP, read-out: ALK Activity
[7] = 1 μM ATP (Km level), read-out: cMet Activity (c-Met Kinase Inhibition, IC50)
[8] = 1 μM ATP (Km level), read-out: ALK Activity (ALK Kinase Inhibition, IC50)

T1 sequence (P08581 956-1390 limits assumed): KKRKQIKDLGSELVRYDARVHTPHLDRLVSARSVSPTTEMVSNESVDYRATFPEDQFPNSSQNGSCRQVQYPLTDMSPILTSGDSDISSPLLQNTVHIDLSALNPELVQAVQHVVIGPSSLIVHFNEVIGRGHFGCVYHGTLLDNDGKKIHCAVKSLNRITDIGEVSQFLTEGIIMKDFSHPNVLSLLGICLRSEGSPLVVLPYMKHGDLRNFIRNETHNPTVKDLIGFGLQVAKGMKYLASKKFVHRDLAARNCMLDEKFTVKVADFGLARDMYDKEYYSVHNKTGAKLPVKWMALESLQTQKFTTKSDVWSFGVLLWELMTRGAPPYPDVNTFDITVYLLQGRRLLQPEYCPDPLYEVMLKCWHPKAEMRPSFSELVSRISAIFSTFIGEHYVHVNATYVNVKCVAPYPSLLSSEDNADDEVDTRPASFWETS
T2 sequence (Q9UM73 19-1620): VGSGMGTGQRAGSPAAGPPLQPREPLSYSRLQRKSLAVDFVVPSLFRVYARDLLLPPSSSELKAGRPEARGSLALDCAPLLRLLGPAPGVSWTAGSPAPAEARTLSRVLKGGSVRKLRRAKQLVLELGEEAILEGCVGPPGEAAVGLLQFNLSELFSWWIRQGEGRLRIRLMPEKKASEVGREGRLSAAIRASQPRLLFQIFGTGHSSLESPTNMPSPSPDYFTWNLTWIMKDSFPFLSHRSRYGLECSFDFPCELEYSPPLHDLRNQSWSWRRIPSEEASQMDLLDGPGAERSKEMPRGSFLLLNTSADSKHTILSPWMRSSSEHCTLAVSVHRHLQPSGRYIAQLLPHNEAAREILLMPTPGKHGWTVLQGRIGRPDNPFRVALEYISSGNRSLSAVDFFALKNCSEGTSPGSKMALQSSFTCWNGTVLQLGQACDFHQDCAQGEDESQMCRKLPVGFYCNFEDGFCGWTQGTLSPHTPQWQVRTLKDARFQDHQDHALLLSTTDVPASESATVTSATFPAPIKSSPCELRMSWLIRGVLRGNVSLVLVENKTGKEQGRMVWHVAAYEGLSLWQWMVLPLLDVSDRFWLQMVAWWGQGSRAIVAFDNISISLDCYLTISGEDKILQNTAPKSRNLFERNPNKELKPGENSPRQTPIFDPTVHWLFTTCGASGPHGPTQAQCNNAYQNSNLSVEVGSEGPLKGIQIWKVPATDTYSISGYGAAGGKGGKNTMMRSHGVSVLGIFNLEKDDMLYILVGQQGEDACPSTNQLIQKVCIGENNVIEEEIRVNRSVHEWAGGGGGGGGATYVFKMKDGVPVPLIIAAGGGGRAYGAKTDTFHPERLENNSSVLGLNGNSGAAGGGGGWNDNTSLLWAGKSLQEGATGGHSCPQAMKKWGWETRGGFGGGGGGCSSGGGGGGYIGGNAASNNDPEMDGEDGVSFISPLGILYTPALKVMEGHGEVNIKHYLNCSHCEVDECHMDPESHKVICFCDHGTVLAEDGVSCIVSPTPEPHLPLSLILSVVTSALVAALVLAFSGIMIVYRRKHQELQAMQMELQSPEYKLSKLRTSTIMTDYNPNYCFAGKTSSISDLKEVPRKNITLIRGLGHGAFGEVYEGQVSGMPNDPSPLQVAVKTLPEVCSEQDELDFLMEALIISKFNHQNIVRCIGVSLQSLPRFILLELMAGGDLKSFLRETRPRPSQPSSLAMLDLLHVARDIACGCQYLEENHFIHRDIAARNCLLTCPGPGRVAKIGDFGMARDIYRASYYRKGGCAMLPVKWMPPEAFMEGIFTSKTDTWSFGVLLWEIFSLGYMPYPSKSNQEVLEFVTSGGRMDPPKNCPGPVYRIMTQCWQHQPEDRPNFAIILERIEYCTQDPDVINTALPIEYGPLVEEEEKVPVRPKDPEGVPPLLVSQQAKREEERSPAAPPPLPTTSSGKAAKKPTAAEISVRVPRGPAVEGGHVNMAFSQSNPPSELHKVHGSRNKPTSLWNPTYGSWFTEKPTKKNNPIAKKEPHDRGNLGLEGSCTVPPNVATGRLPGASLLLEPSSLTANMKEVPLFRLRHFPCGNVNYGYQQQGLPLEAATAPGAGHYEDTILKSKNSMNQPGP

Row | Molecule | IC50 [1, 5] | IC50 [2, 6] | IC50 [1, 7] | IC50 [2, 8] | also measured
1 | CNC(=O)c1cc(Br)cc(F)c1Nc1nc(Nc2ccc3c(c2)CCN(CCOC)CC3)ncc1Cl [Example 1415, 5-Bromo-2-{5-chloro-2-[3-(2-methoxy-ethyl)-2,3,4,5-tetrahydro-1H-benzo[d]azepin-7-ylamino]-pyrimidin-4-ylamino}-3-fluoro-N-methyl-benzamide] | – | – | – | – | IC50 ([1]; 1 μM ATP (Km level), 10 ng/mL c-Met, read-out: cMet Activity (c-Met kinase inhibition, IC50 class)): < 100 nM; IC50 ([2]; 1 μM ATP (Km level), 30 ng/ml ALK, 37° C., 15 minutes, read-out: ALK Activity (ALK kinase inhibition, IC50 class)): < 100 nM
2 | CNC(=O)c1ccccc1Nc1nc(Nc2ccc3c(c2)C2CCC3CNC2)ncc1Cl (stereo not shown) [Example 277, 2-[2-(10-Aza-tricyclo[6.3.2.0*2,7*]trideca-2,4,6-trien-4-ylamino)-5-chloro-pyrimidin-4-ylamino]-N-methyl-benzamide] | – | – | – | – | IC50 [1, 3]: < 100 nM; IC50 [2, 4]: < 100 nM
3 | CNC(=O)c1ccccc1Nc1nc(Nc2cc3c(cc2OC)CCOC(=O)N3C)ncc1Cl [Example 1511, 2-[5-Chloro-2-(2-methoxy-5-methyl-6-oxo-5,6,8,9-tetrahydro-7-oxa-5-aza-benzocyclohepten-3-ylamino)-pyrimidin-4-ylamino]-N-methyl-benzamide] | 1000 to 10000 nM | < 100 nM | – | – | –
4 | COc1cc2c(cc1Nc1ncc(Cl)c(Nc3ccc(N4CCN(C)CC4)cc3OC)n1)CCNC(=O)C2 [Example 778, 7-{5-Chloro-4-[2-methoxy-4-(4-methyl-piperazin-1-yl)-phenylamino]-pyrimidin-2-ylamino}-8-methoxy-1,3,4,5-tetrahydro-benzo[d]azepin-2-one] | – | – | > 10000 nM | < 100 nM | –
5 | N-((1R,2R)-2-{5-Chloro-2-[7-(2,2,2-trifluoro-ethylamino)-6,7,8,9-tetrahydro-5H-benzocyclohepten-2-ylamino]-pyrimidin-4-ylamino}-cyclohexyl)-methanesulfonamide [Example 687] | – | – | > 10000 nM | < 100 nM | –
6 | CC(C)S(=O)(=O)c1ccccc1Nc1nc(Nc2cccc3c2OCCCC3(C)C)ncc1Cl [Example 878, 5-Chloro-N*2*-(5,5-dimethyl-2,3,4,5-tetrahydro-benzo[b]oxepin-9-yl)-N*4*-[2-(propane-2-sulfonyl)-phenyl]-pyrimidine-2,4-diamine] | – | – | > 10000 nM | 100 to 1000 nM | –
7 | COc1c(Nc2ncc(Cl)c(Nc3ccccc3S(=O)(=O)N(C)C)n2)ccc2c1CCC(N1CCN(C)CC1)CC2 (stereo not shown) [Example 911, 2-{5-Chloro-2-[1-methoxy-7-(4-methyl-piperazin-1-yl)-6,7,8,9-tetrahydro-5H-benzocyclohepten-2-ylamino]-pyrimidin-4-ylamino}-N,N-dimethyl-benzenesulfonamide] | – | – | 1000 to 10000 nM | < 100 nM | –
8 | C#CCN1C2CCC1c1cc(Nc3ncc(Cl)c(Nc4ccccc4C(=O)NC)n3)ccc1C2 (stereo not shown) [Example 69, 2-[5-Chloro-2-(12-prop-2-ynyl-12-aza-tricyclo[7.2.1.0*2,7*]dodeca-2(7),3,5-trien-4-ylamino)-pyrimidin-4-ylamino]-N-methyl-benzamide] | – | – | – | – | IC50 [1, 3]: < 100 nM; IC50 [2, 4]: < 100 nM

Second part, led by results:

Row | IC50 [1, 5] | IC50 [2, 6] | IC50 [1, 7] | IC50 [2, 8] | Molecule | also measured
9 | < 100 nM | 100 to 1000 nM | – | – | CNC(=O)c1scc(C)c1Nc1nc(Nc2ccc3c(c2)-n2ccnc2CCC3)ncc1Cl [Example 1838, 3-[5-Chloro-2-(5,6-dihydro-4H-3,10b-diaza-benzo[e]azulen-9-ylamino)-pyrimidin-4-ylamino]-4-methyl-thiophene-2-carboxylic acid methylamide] | –
10 | > 10000 nM | < 100 nM | – | – | COc1cc2c(cc1Nc1ncc(Cl)c(N[C@@H]3CCCC[C@H]3NS(C)(=O)=O)n1)NC(=O)CN(Cc1ccccc1)C2 [Example 1651, N-{(1R,2R)-2-[2-(4-Benzyl-7-methoxy-2-oxo-2,3,4,5-tetrahydro-1H-benzo[e][1,4]diazepin-8-ylamino)-5-chloro-pyrimidin-4-ylamino]-cyclohexyl}-methanesulfonamide] | –
11 | 100 to 1000 nM | < 100 nM | – | – | COCCOc1cccc(F)c1Nc1nc(Nc2ccc3c(c2)CCN(CCOC)CC3)ncc1Cl [Example 1696, 5-Chloro-N*4*-[2-fluoro-6-(2-methoxy-ethoxy)-phenyl]-N*2*-[3-(2-methoxy-ethyl)-2,3,4,5-tetrahydro-1H-benzo[d]azepin-7-yl]-pyrimidine-2,4-diamine] | –
